In US11739074B2, “Ras inhibitors” (Revolution Medicines, Inc., priority 2019, dated 2023):
Where two headings read alike, the source gives them in different places.

Legend:
NRAS Q61K = target: T1, NRAS Q61K (Homo sapiens, UniProt P01111+P62937, Q61K); assay: Ras-Raf disruption/FRET/MOA assay, NRAS Q61K; assay type: biochemical
T1 construct: His6
Text: (§1) Disruption of B-Raf Ras-Binding Domain (BRAF^RBD) Interaction with K-Ras by Compounds of the Invention (Also Called a FRET Assay or an MOA Assay)
(§2) Note—The following protocol describes a procedure for monitoring disruption of K-Ras G12C (GMP-PNP) binding to BRAF^RBD by a compound of the invention. This protocol may also be executed substituting other Ras proteins or nucleotides, such as K-Ras G12D and K-Ras G13D.
(§3) The purpose of this biochemical assay was to measure the ability of test compounds to facilitate ternary complex formation between a nucleotide-loaded K-Ras isoform and Cyclophilin A; the resulting ternary complex disrupts binding to a BRAF^RBD construct, inhibiting K-Ras signaling through a RAF effector.
(§4) In assay buffer containing 25 mM HEPES pH 7.3, 0.002% Tween20, 0.1% BSA, 100 mM NaCl and 5 mM MgCl2, tagless Cyclophilin A, His6-K-Ras-GMPPNP, and GST-BRAF^RBD were combined in a 384-well assay plate at final concentrations of 25 μM, 12.5 nM, and 50 nM, respectively. Compound was present in plate wells as a 10-point 3-fold dilution series starting at a final concentration of 30 μM. After incubation at 25° C. for 3 hours, a mixture of anti-His Eu-W1024 and anti-GST allophycocyanin was then added to assay sample wells at final concentrations of 10 nM and 50 nM, respectively, and the reaction incubated for an additional 1.5 hours. […] Compounds that facilitate disruption of a K-Ras:RAF complex were identified as those eliciting a decrease in the TR-FRET ratio relative to DMSO control wells.

NRAS WT = target: T2, NRAS WT (Homo sapiens, UniProt P01111+P62937); assay: Ras-Raf disruption/FRET/MOA assay, NRAS WT; assay type: biochemical
T2 construct: His6
Text: as §1, §2, §3, §4

AsPC-1 (K-Ras G12D) [1] = assay: Potency assay: pERK in AsPC-1 cells; assay type: cell-based; conditions: Homo sapiens
NRAS G12C = target: T3, NRAS G12C (Homo sapiens, UniProt P01111+P62937, G12C); assay: Ras-Raf disruption/FRET/MOA assay, NRAS G12C; assay type: biochemical
T3 construct: His6
Method in brief: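 Disruption of Ras:RAF binding was read as a drop in TR-FRET ratio versus DMSO controls. The buffer was 25 mM HEPES pH 7.3, 0.002% Tween20, 0.1% BSA, 100 mM NaCl and 5 mM MgCl2. Compounds were tested as a 10-point 3-fold dilution series from 30 μM. Detection used 10 nM anti-His Eu-W1024 and 50 nM anti-GST allophycocyanin.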

NRAS Q61R = target: T4, NRAS Q61R (Homo sapiens, UniProt P01111+P62937, Q61R); assay: Ras-Raf disruption/FRET/MOA assay, NRAS Q61R; assay type: biochemical
T4 construct: His6
Text: as §1, §2, §3, §4

AsPC-1 (K-Ras G12D) [2] = assay: CellTiter-Glo cell viability assay, AsPC-1; assay type: cell-based; conditions: Homo sapiens, ASPC1, 120 h
Method in brief: (§5)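 Luminescence from CellTiter-Glo serves as the viability read-out after cells are treated with compound for 5 days. Each well's signal is divided by the DMSO average and multiplied by 100, and curves are fitted by four-parameter logistic regression.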

NCI-H358 (K-Ras G12C) = assay: CellTiter-Glo cell viability assay, H358; assay type: cell-based; conditions: Homo sapiens, NCI-H358, 120 h
Method in brief: as §5

KRAS WT = KRAS WT (Homo sapiens, UniProt P01116+P62937); assay: Ras-Raf disruption/FRET/MOA assay, KRAS WT; assay type: biochemical; conditions: disruption of BRAF RBD binding, with Cyclophilin A; read-out: KRAS WT FRET IC50
Method in brief: (§6)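 His6-KRAS-GMPPNP (12.5 nM) was combined with tagless Cyclophilin A (25 μM) and GST-BRAF^RBD (50 nM) in pH 7.3 HEPES buffer with NaCl, MgCl2, Tween20 and BSA. Compound was tested as a 10-point 3-fold series from 30 μM final, 3 h at 25° C. Disruption was read as a drop in TR-FRET ratio versus DMSO.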

KRAS G12S = KRAS G12S (Homo sapiens, UniProt P01116+P62937, G12S); assay: Ras-Raf disruption/FRET/MOA assay, KRAS G12S; assay type: biochemical; conditions: disruption of BRAF RBD binding, with Cyclophilin A; read-out: KRAS G12S FRET IC50
Method in brief: as §6

KRAS G12V = KRAS G12V (Homo sapiens, UniProt P01116+P62937, G12V); assay: Ras-Raf disruption/FRET/MOA assay, KRAS G12V; assay type: biochemical; conditions: disruption of BRAF RBD binding, with Cyclophilin A; read-out: KRAS G12V FRET IC50
Method in brief: as §6

KRAS G13C = KRAS G13C (Homo sapiens, UniProt P01116+P62937, G13C); assay: Ras-Raf disruption/FRET/MOA assay, KRAS G13C; assay type: biochemical; conditions: disruption of BRAF RBD binding, with Cyclophilin A; read-out: KRAS G13C FRET IC50
Method in brief: as §6

KRAS G13D = KRAS G13D (Homo sapiens, UniProt P01116+P62937, G13D); assay: Ras-Raf disruption/FRET/MOA assay, KRAS G13D; assay type: biochemical; conditions: disruption of BRAF RBD binding, with Cyclophilin A; read-out: KRAS G13D FRET IC50
Method in brief: as §6

KRAS Q61H = KRAS Q61H (Homo sapiens, UniProt P01116+P62937, Q61H); assay: Ras-Raf disruption/FRET/MOA assay, KRAS Q61H; assay type: biochemical; conditions: KRAS Q61H; read-out: KRAS Q61H FRET data IC50
Text: as §1, §2, §3, §4

KRAS G12C = KRAS G12C (Homo sapiens, UniProt P01116+P62937, G12C); assay: Ras-Raf disruption/FRET/MOA assay, KRAS G12C; assay type: biochemical; conditions: disruption of BRAF RBD binding, with Cyclophilin A; read-out: KRAS G12C FRET IC50
Method in brief: as §6

KRAS G12D = KRAS G12D (Homo sapiens, UniProt P01116+P62937, G12D); assay: Ras-Raf disruption/FRET/MOA assay, KRAS G12D; assay type: biochemical; conditions: disruption of BRAF RBD binding, with Cyclophilin A; read-out: KRAS G12D FRET IC50
Method in brief: as §6

[3] = ASPC1, AsPC-1 cells, K-Ras G12D, read-out: pERK EC50 (AsPC-1 KRAS G12D)
[4] = AsPC-1, K-Ras G12D, 5-day treatment, read-out: AsPC-1 Cell Viability IC50
[5] = ASPC1, read-out: pERK EC50 (AsPC-1 KRAS G12D)
[6] = NRAS Q61K, read-out: NRAS Q61K FRET data IC50
[7] = NRAS WT, read-out: NRAS WT FRET data IC50
[8] = NRAS G12C, read-out: NRAS G12C FRET data IC50
[9] = NRAS Q61R, read-out: NRAS Q61R FRET data IC50

KRAS Q61H, sequence (P01116 1-169 isoform P01116-2 Q61H limits assumed): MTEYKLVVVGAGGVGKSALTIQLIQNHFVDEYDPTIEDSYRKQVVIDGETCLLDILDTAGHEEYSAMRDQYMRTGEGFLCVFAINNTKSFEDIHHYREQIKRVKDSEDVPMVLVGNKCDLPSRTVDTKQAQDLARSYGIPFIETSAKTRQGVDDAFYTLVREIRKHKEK
KRAS Q61H, sequence (P62937 whole entry): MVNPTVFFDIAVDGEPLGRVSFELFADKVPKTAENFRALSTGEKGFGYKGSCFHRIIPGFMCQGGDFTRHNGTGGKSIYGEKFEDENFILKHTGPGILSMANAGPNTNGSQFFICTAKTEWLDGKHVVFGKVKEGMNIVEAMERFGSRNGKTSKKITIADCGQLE
T2 sequence (P01111 whole entry): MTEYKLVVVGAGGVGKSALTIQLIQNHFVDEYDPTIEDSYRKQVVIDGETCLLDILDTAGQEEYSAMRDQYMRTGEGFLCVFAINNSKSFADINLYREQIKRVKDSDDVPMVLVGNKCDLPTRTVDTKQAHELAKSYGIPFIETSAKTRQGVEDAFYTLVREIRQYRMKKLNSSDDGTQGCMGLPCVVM
T2 sequence (P62937 whole entry): as the sequence (P62937 whole entry) above
T3 sequence (P01111 whole entry G12C): as the sequence (P01111 whole entry) above, with G12C counted along it
T3 sequence (P62937 whole entry): as the sequence (P62937 whole entry) above
T4 sequence (P01111 whole entry Q61R): as the sequence (P01111 whole entry) above, with Q61R counted along it
T4 sequence (P62937 whole entry): as the sequence (P62937 whole entry) above
T1 sequence (P01111 whole entry Q61K): as the sequence (P01111 whole entry) above, with Q61K counted along it
T1 sequence (P62937 whole entry): as the sequence (P62937 whole entry) above
KRAS G12S, sequence (P01116 1-169 isoform P01116-2 G12S limits assumed): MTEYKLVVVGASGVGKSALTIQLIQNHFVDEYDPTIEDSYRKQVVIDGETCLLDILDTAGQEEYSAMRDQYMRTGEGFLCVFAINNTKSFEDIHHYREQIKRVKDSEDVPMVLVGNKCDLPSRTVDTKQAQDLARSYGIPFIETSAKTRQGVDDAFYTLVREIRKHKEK
KRAS G12S, sequence (P62937 whole entry): as the sequence (P62937 whole entry) above
KRAS G12D, sequence (P01116 1-169 isoform P01116-2 G12D limits assumed): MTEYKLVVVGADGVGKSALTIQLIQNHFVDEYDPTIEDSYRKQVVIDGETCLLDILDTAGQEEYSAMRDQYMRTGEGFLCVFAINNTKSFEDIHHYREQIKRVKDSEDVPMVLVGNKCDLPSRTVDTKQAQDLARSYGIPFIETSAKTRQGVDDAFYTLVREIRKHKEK
KRAS G12D, sequence (P62937 whole entry): as the sequence (P62937 whole entry) above
KRAS G12V, sequence (P01116 1-169 isoform P01116-2 G12V limits assumed): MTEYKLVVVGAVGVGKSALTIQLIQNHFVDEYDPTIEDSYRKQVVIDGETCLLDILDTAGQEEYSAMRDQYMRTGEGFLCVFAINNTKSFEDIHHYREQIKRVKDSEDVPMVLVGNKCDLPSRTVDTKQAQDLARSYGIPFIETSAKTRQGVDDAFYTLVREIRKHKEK
KRAS G12V, sequence (P62937 whole entry): as the sequence (P62937 whole entry) above
KRAS G13C, sequence (P01116 1-169 isoform P01116-2 G13C limits assumed): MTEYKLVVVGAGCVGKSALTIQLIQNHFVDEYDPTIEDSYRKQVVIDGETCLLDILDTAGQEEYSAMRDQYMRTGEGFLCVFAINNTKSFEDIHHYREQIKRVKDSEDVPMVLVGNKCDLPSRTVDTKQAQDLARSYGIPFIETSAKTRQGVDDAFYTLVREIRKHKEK
KRAS G13C, sequence (P62937 whole entry): as the sequence (P62937 whole entry) above
KRAS WT, sequence (P01116 1-169 isoform P01116-2 limits assumed): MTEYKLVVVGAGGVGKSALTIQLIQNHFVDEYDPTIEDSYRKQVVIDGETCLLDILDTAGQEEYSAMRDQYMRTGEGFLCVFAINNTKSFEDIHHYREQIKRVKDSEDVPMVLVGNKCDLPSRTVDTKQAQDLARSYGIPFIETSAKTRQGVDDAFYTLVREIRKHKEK
KRAS WT, sequence (P62937 whole entry): as the sequence (P62937 whole entry) above
KRAS G13D, sequence (P01116 1-169 isoform P01116-2 G13D limits assumed): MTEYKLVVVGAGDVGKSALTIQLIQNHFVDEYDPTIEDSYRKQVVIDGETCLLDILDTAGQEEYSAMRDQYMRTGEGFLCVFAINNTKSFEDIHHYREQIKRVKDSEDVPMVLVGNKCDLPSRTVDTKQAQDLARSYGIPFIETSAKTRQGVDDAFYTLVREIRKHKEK
KRAS G13D, sequence (P62937 whole entry): as the sequence (P62937 whole entry) above
KRAS G12C, sequence (P01116 1-169 isoform P01116-2 G12C limits assumed): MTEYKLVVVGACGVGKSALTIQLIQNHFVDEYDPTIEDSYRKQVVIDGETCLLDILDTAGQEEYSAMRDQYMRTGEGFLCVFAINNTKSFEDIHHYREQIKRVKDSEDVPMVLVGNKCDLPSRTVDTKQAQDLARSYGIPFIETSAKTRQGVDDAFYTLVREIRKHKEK
KRAS G12C, sequence (P62937 whole entry): as the sequence (P62937 whole entry) above

Compound	IC50 (NRAS WT)	EC50 (AsPC-1 (K-Ras G12D) [1]; [3])	IC50 (AsPC-1 (K-Ras G12D) [2]; [4])	EC50 (AsPC-1 (K-Ras G12D) [1]; [5])	IC50 (NRAS Q61K; [6])	IC50 (KRAS WT)	IC50 (NRAS WT; [7])	IC50 (KRAS G12S)	IC50 (KRAS G12V)	IC50 (NRAS G12C; [8])	IC50 (KRAS G13C)	IC50 (KRAS G13D)	IC50 (KRAS Q61H)	IC50 (KRAS G12C)	IC50 (NRAS Q61R; [9])	IC50 (KRAS G12D)	other results
CCn1c(-c2cccnc2[C@H](C)OC)c2c3cc(ccc31)-c1cc(O)cc(c1)C[C@H](NC(=O)C(C(C)C)N(C)C(=O)[C@@]1(C)CCCN1C(=O)[C@H]1CN1)C(=O)N1CCC[C@H](N1)C(=O)OCC(C)(C)C2 (stereo partly drawn) [Compound 240]	1000 to 10000 nM	< 5000 nM	1000 to 10000 nM	–	–	–	–	–	–	–	–	–	–	–	–	–	IC50 (NRAS Q61K): > 10000 nM; IC50 (NRAS G12C; NRAS G12C FRET data IC50, NRAS G12C): 100 to 1000 nM; IC50 (NRAS Q61R): 1000 to 10000 nM
CCn1c(-c2cccnc2[C@H](C)OC)c2c3cc(ccc31)-c1cc(O)cc(c1)C[C@H](NC(=O)[C@H](C(C)C)N(C)C(=O)CN(C)C(=O)[C@@H]1CN1CCCOC(C)=O)C(=O)N1CCC[C@H](N1)C(=O)OCC(C)(C)C2 (stereo partly drawn) [Compound 267]	10 to 100 nM	–	–	< 5000 nM	–	–	–	–	–	–	–	–	–	–	–	–	IC50 (NCI-H358 (K-Ras G12C); read-out: H358 Cell Viability IC50, NCI-H358, K-Ras G12C, 5-day treatment): < 10 nM; IC50 (AsPC-1 (K-Ras G12D) [2]; read-out: AsPC-1 Cell Viability IC50, AsPC-1, K-Ras G12D, 5-day treatment): 100 to 1000 nM
CCn1c(-c2cccnc2[C@H](C)OC)c2c3cc(ccc31)-c1cc(O)cc(c1)C[C@H](NC(=O)[C@H](C(C)C)N1CCCC3(CN(C(=O)[C@@H]4CN4)C3)C1=O)C(=O)N1CCC[C@H](N1)C(=O)OCC(C)(C)C2 [Compound 306]	–	< 5000 nM	1000 to 10000 nM	–	100 to 1000 nM	10 to 100 nM	10 to 100 nM	10 to 100 nM	10 to 100 nM	< 10 nM	10 to 100 nM	10 to 100 nM	10 to 100 nM	< 10 nM	100 to 1000 nM	100 to 1000 nM	–
CCn1c(-c2cccnc2[C@H](C)OC)c2c3cc(ccc31)-c1cccc(c1)C[C@H](NC(=O)[C@H](C1CCCC1)N1CC[C@]3(CCN(C(=O)[C@@H]4N[C@@H]4C4CC4)C3)C1=O)C(=O)N1CCC[C@H](N1)C(=O)OCC(C)(C)C2 [Compound 313]	–	< 5000 nM	10 to 100 nM	–	–	–	–	–	–	–	–	–	100 to 1000 nM	–	–	–	IC50 (NCI-H358 (K-Ras G12C); NCI-H358, K-Ras G12C, 5-day treatment, read-out: H358 Cell Viability IC50): 100 to 1000 nM
CCn1c(-c2cnccc2COC)c2c3cc(ccc31)-c1cc(O)cc(c1)C[C@H](NC(=O)[C@H](C(C)C)N(C)C(=O)CN(C)C(=O)[C@H]1CN1S(C)(=O)=O)C(=O)N1CCC[C@H](N1)C(=O)OCC(C)(C)C2 (stereo partly drawn) [Example 36, (2R)—N-(2-(((2S)-1-(((6^3S,4S)-1^1-ethyl-2^5-hydroxy-1^2-(4-(methoxymethyl)pyridin-3-yl)-10,10-dimethyl-5,7-dioxo-6^1,6^2,6^3,6^4,6^5,6^6-hexahydro-1^1H-8-oxa-1(5,3)-indola-6(1,3)-pyridazina-2(1,3)-benzenacycloundecaphane-4-yl)amino)-3-methyl-1-oxobutan-2-yl)(methyl)amino)-2-oxoethyl)-N-methyl-1-(methylsulfonyl)aziridine-2-carboxamide]	–	–	–	< 5000 nM	100 to 1000 nM	10 to 100 nM	100 to 1000 nM	10 to 100 nM	10 to 100 nM	10 to 100 nM	10 to 100 nM	100 to 1000 nM	10 to 100 nM	10 to 100 nM	100 to 1000 nM	100 to 1000 nM	IC50 (AsPC-1 (K-Ras G12D) [2]; read-out: AsPC-1 Cell Viability IC50): > 10000 nM
